Measurements as given in paper PMC11761228, “Cinnamic Acid Compounds (p-Coumaric, Ferulic, and p-Methoxycinnamic Acid) as Effective Antibacterial Agents Against Colistin-Resistant Acinetobacter baumannii” (Antibiotics, 2025).
Converted amounts (≈) assume the structure as drawn. “And” between values parts separate entries of the source, which are not always exact repeats. Identical values can stand only once. “Also recorded” adds a separate entry of the source. Like-named read-outs stand apart in the source and are kept apart here.

How the values were obtained:
Vero cells = test: CCK-8 cell viability assay; assay type: cell-based, African green monkey; conditions: 24 h; for Cytotoxicity (doses with cytotoxic effects): 0.78125–200 μg/mL
Protocol: (§1) 293T [HEK-293] (ATCC® CRL-1573), HUVEC (ATCC CRL-1730 ™, human umbilical vein endothelial cells) and Vero (ATCC® CCL-81™, African green monkey kidney epithelial cells) cells were used in this study. Cells were cultured in RPMI-1640 medium supplemented with 10% fetal bovine serum, 0.1 mM non-essential amino acids, […], 2 mM L-glutamine, and 10 μg/mL gentamicin in a humidified atmosphere of 5% CO2, 95% air at 37 °C. After growing to approximately 80% confluence, the cells were detached with 0.25% (w/v) trypsin-EDTA and then subcultured. The cells were stored in a deep freezer at −80 °C in a solution prepared with 95% medium and 5% DMSO.
(§2) Cell viability was assessed according to the manufacturer’s protocol using a Cell Counting Kit-8 (CCK-8) (KTA1020, Abbkine, Atlanta, GA, USA). The assay is based on the reduction of 2-(2-methoxy-4-nitrophenyl)-3-(4-nitrophenyl)-5-(2,4-disulfophenyl)-2H-tetrazolium monosodium salt (WST-8) by cellular mitochondrial dehydrogenase. Cells were seeded in 96-well plates at a final concentration of 5 × 10^3 cells/well in 100 μL complete culture medium and were allowed to attach for 24 h. […] Immediately after the treatment, cell viability in a single column was determined and recorded as time zero (T0). The plain medium with 1% FBS was used as a negative control, whereas ethanol was used as solvent control. Each treatment was performed in four well replicates. At the end of the incubation, the medium was gently aspirated to terminate the experiment, a total volume of 10 μL (5 mg/mL) of CCK-8 solution was added to each well and further incubated under the same conditions for 4 h. The absorbances at 450 nm were measured in a microplate reader (Thermo Labsystem, Waltham, MA, USA), using wells without cells as background. The sample readings were calculated by subtracting the average of background absorbances. The half-maximal inhibitory concentration (IC50) of each extract was derived by a nonlinear regression model (curve-fit) based on a sigmoidal dose response curve (variable slope) and was computed using Graph-Pad Prism, version 4.00 (Graph-Pad Software, San Diego, CA, USA). Cell viability was calculated using the following formula: Cell viability (%) = (ODtreatment − ODblank)/(ODcontrol − ODblank) × 100% [78].

COLR-Ab4 isolate = test: Cytoplasmic membrane permeability assay (A260 of supernatant); assay type: cell-based, Acinetobacter baumannii; conditions: 3 h
Protocol: A cell membrane permeability assay was carried out in accordance with the methods described by Köse (2023). […] The bacteria were firstly incubated in MHB at 35 ± 2 °C overnight. Subsequently, the bacterial culture was centrifuged at 4000× g at 15 min, after which the pellet was washed twice with PBS. […] A suspension containing PBS and bacteria was used as a control. All samples were incubated at 35 ± 2 °C for 3 h, centrifuged at 13,400× g for 15 min, and the supernatant was harvested. The absorbance (A)260 of the supernatant was quantified using a UV-Vis spectrophotometer (Agilent Technologies, Santa Clara, CA, USA) to determine the amount of nucleic acid released from the cytoplasm. Each experiment was repeated three times.

COLR-Ab isolates = test: Broth microdilution MIC determination (CLSI); assay type: cell-based, Acinetobacter baumannii
Protocol: The broth microdilution method, as recommended by the CLSI, was used to determine the MIC values of COL, p-CA, FA, and p-MCA [46]. The serial two-fold dilutions of antimicrobial agents were prepared using 96-well microplates with cation-adjusted Mueller-Hinton Broth (MHB) (CAMHB, Merck KGaA, Darmstadt, Germany). Firstly, an initial concentration of 8192 µg/mL was chosen to determine the MIC values of all compounds against COLR-Ab isolates. […] The bacterial suspension was adjusted to the 0.5 McFarland standard and added to each well (final bacterial concentration: 5 × 10^5 colony forming units [CFU]/mL). Additionally, the microdilution plates included controls for bacterial growth (CAMHB + bacteria) and medium sterility (CAMHB). Microdilution plates were incubated at 35 ± 2 °C for 18–24 h. The MIC values were calculated by comparing the growth densities in the antibiotic-containing wells to those in the control wells used in each test set. Each experiment was conducted in triplicate.

[1] = tested on: biofilm formation of COLR-Ab isolates; test: Antibiofilm activity, microtiter plate-based crystal violet technique; assay type: cell-based, Acinetobacter baumannii; conditions: for Reduction of biofilm formation: dose range 512–32 μg/mL
Protocol: Following the incubation period, the microtiter plates were gently washed three times with PBS. Subsequently, 200 µL of methanol (99%) was added to each well and left for 15 min. The methanol was then removed from the wells and the plate was left to dry for approximately 30 min, thus completing the fixation process. Then, 200 µL of 0.1% CV solution was added to each well and incubated for 20 min at room temperature. The plates were washed three times with PBS in order to remove the excess stain, and then 150 μL of 95% ethanol was added to the wells and incubated for 20 min. The optical density of the CV-stained biofilm was measured at a wavelength of 575 nm using a Thermo Labsystem Multiscan Spectrum microtiter plate reader (Thermolabsystem, Chantilly, VA, USA). Each experiment was conducted in triplicate.
In order to evaluate the antibiofilm activity of COL, p-CA, FA, and p-MCA, a 96-well microtiter plate-based CV test was carried out, with minor modifications to the methods previously described by Kırmusaoglu (2019) and Haney et al. (2021). Briefly, bacteria were inoculated into MHB medium containing 0.2% glucose and incubated at 37 °C for 16–20 h. The bacterial suspension, adjusted to 0.5 McFarland using the same medium, was prepared to a final concentration of 5 × 10^5 CFU/mL and inoculated into 96-well flat-bottom microtitre plates. […] Wells containing only medium were used as negative controls (MHB), and wells containing only medium and bacteria were used as growth controls. The plates were then incubated overnight at 35 ± 2 °C in a normal atmosphere. Following incubation, CV staining procedures were carried out in a similar manner to Section 4.4.
The antibiofilm index was calculated using the following formula:% Biofilm Mass = (100 × Sample OD575/Growth Control OD575)

HUVEC cells = test: CCK-8 cell viability assay; assay type: cell-based, human; conditions: 0.78125–200 μg/mL, 24 h
Protocol: as §1
as §2, with “The half-maximal inhibitory concentration (IC50) of each extract was derived by a nonlinear regression model (curve-fit) based on a sigmoidal dose response curve (variable slope) and was computed using Graph-Pad Prism, version 4.00 (Graph-Pad Software, San Diego, CA, USA).” left out

SMILES	Cytotoxicity (doses with cytotoxic effects) (Vero cells)	Increase in absorbance values at 260 nm vs control (COLR-Ab4 isolate; COLR-Ab4, MIC concentration) [fold]	Increase in absorbance values at 260 nm vs control (COLR-Ab4 isolate; COLR-Ab4, MIC/2 concentration) [fold]	Increase in absorbance values at 260 nm vs control (COLR-Ab4 isolate; COLR-Ab4, MIC/4 concentration)	MIC (COLR-Ab isolates; COLR-Ab1) [µg/mL]	MIC (COLR-Ab isolates; COLR-Ab2) [µg/mL]	MIC (COLR-Ab isolates; COLR-Ab3)	MIC (COLR-Ab isolates; COLR-Ab4) [µg/mL]	MIC (COLR-Ab isolates; COLR-Ab5) [µg/mL]	Cytotoxicity (doses with cytotoxic effects) (HUVEC cells)	Reduction of biofilm formation ([1]; COLR-Ab1, 3, 4, 5)	other results
COc1cc(/C=C/C(=O)O)ccc1O [FA, ferulic acid]	no cytotoxic effects; also recorded: did not exhibit any cytotoxic effect	1.66	1.52	1.14 fold	1024 (≈ 5270 µM)	1024 (≈ 5270 µM)	1024 µg/mL (≈ 5270 µM)	512 (≈ 2640 µM)	1024 (≈ 5270 µM)	did not induce cytotoxic effects; also recorded: did not exhibit any cytotoxic effect		MIC (COLR-Ab isolates; all isolates except COLR-Ab4): 1024 µg/mL (≈ 5270 µM); Inhibition of biofilm formation ([1]; dose range 2048–128 μg/mL, COLR-Ab1, 3, 4, 5): 28.1–77%
O=C(O)/C=C/c1ccc(O)cc1 [p-CA, p-coumaric acid]	no cytotoxic effects; also recorded: did not exhibit cytotoxic effects	1.9	1.71	1.19 fold					128 (≈ 780 µM)	cytotoxicity in HUVEC cells at concentrations of 200 μg/mL (p < 0.01), 100 μg/mL (p < 0.05), and 50 μg/mL (p < 0.05); also recorded: cytotoxic at 200 (p < 0.01), 100 (p < 0.05), and 50 (p < 0.05) μg/mL	37.3–77.5%	IC50 value (Vero cells; tested range 0.78–200 μg/mL): indeterminate; MIC (COLR-Ab isolates; Acinetobacter baumannii, COLR-Ab1, read-out: MIC): 256 µg/mL (≈ 1560 µM); MIC (COLR-Ab isolates; Acinetobacter baumannii, COLR-Ab2, read-out: MIC): 256 µg/mL (≈ 1560 µM); MIC (COLR-Ab isolates; Acinetobacter baumannii, COLR-Ab3, read-out: MIC): 256 µg/mL (≈ 1560 µM); MIC (COLR-Ab isolates; Acinetobacter baumannii, COLR-Ab4, read-out: MIC): 256 µg/mL (≈ 1560 µM); MIC (COLR-Ab isolates; Acinetobacter baumannii, COLR-Ab5, read-out: MIC): 128 µg/mL (≈ 780 µM); MIC (COLR-Ab isolates; Acinetobacter baumannii, all isolates except COLR-Ab5, read-out: MIC): 256 µg/mL (≈ 1560 µM); Increase in biofilm formation ([1]; COLR-Ab3, doses of 16–8 μg/mL): 20%
COc1ccc(C=CC(=O)O)cc1 [p-MCA, p-methoxycinnamic acid]	only 200 μg/mL p-MCA induced cytotoxicity; also recorded: only at 200 μg/mL (p < 0.05)	1.34	1.15	no statistically significant differences	512 (≈ 2870 µM)	512 (≈ 2870 µM)	256 µg/mL and 128 µg/mL	256 (≈ 1440 µM)	128 (≈ 718 µM)	cytotoxicity in these cells at concentrations of 200, 100, and 50 μg/mL; also recorded: cytotoxic effects in HUVEC cells at doses of 200, 100, and 50 μg/mL	40.3–77.2%	
